# Results as given in patent US20100099770A1, “METHOD FOR TREATING DIABETIC PERIPHERAL NEUROPATHIC PAIN” (SCHWARZ PHARMA AG, priority 2001, published 2010).
# Entries after “also recorded” stand apart in the source; their conditions may differ.
# How the values were obtained:
# [1] = tested on: spontaneous pain induced by unilateral chronic constriction injury; assay: Chronic constriction injury (CCI, Bennett model): spontaneous pain; type: in vivo, rat; settings: for Spontaneous nociception, weighted pain score, Post-op + Drug: ligated paw, score 0-5, ±SEM
# Method: (§1) The effectiveness of harkoseride in reducing spontaneous chronic pain, mechanical allodynia, and thermal hyperalgesia was tested using the chronic constriction injury (CCI) model of peripheral neuropathy, one of the best characterised in vivo animal models used to study chronic pain due to peripheral nerve injury. In this model, loose ligatures are placed around the sciatic nerve, which produces axonal swelling and a partial deafferentation manifested as a significant but incomplete loss of axons in the distal portion of the peripheral nerve. One of the prominent behaviours seen following sciatic nerve ligation is the appearance of hind paw guarding, thought to be an indication of an ongoing spontaneous chronic pain. Support for this idea is derived from reports of increased spinal cord neural activity, and increased spontaneous neuronal discharge in spinothalamic tract neurons and in the ventrobasal thalamus in the absence of overt peripheral stimulation. In addition to the appearance of spontaneous pain behaviours, several abnormalities in stimulus evoked pain occur as a result of CCI, including thermal hyperalgesia and mechanical allodynia. The development of these abnormal stimulus-evoked pains has also been reported as occurring in areas outside the territory of the damaged nerve, areas innervated by uninjured nerves.
# (§2) Behavioural tests for spontaneous pain, thermal hyperalgesia, and mechanical allodynia were conducted to evaluate different components of neuropathic pain. Baseline data for each test was collected prior to any experimental procedure; in addition, all animals were tested for the development of chronic pain behaviours 13-25 days after CCI surgery 1 day prior to the day of vehicle (0.04 ml sterile water/10 g body weight) or drug administration and after vehicle/drug administration. The sequence of the tests was (1) spontaneous pain-related behaviour (2) mechanical allodynia, (3) thermal hyperalgesia in order to minimise the influence of one test on the result of the next. The testing procedures and results are presented separately for each aspect of chronic pain. Either 0 (vehicle, 0.04 ml/10 g body weight), 5, 10, 20 or 40 mg/kg of SPM 927 (n=7-23/group) was administered i.p. 15 minutes before the first behavioural test.
# Spontaneous pain (ongoing pain without an apparent external stimulus) of the ligated paw was assessed for 5 min following a 10 min acclimation period by use of a rating score (weighted behaviour score scaled 0-5).
# [2] = tested on: neuropathic pain (CHUNG), tactile stimulation; assay: Neuropathic pain (CHUNG) test, tactile stimulation on lesioned paw; type: in vivo, rat; settings: for FORCE INDUCING PAW-WITHDRAWAL, % change: compared with lesioned control; for FORCE INDUCING PAW-WITHDRAWAL, mean ± s.e.m.: lesioned paw
# Source text: The following Tables 8 and 9 show the effects of harkoseride (hereinafter referred tows SPM 927), carbamazepine, levetiracetam, gabapentin and morphine in the neuropathic pain (CHUNG) test in the rat. Eight (8) rats per group were used.
# [3] = tested on: acute spinal thermal nociception; assay: Tail flick test, rat; type: in vivo; settings: for Anti-nociceptive effect: ±SEM
# Source text: Harkoseride was additionally tested for potential activity in acute spinal thermal nociception using the tail flick test. In this model of acute thermal spinal/reflex hyperalgesia radiant heat is applied to the animal's tail approximately 2 cm from the tip and time latency for withdrawal reaction is automatically assessed by an algometer, a defined maximal stimulus time prevents tissue damage. This test is widely used as an assay for the anti-nociceptive efficacy of pharmacological agents and is highly predictive of acute analgesic efficacy in humans.
# Results for 20 and 40 mg/kg harkoseride i.p are shown in table 5 [percent anti-nociception, calculated as [{(post-drug latency)−(pre-drug-latency)}/{(max. latency)−(pre-drug latency)}×100]±SEM, n=12/group]. A baseline or pre-drug tail-flick latency was determined by averaging 5 consecutive measurements taken 2 minutes apart. Vehicle (sterile water 0.04 ml/10 g body weight) or harkoseride were then administered and tail flick latencies recorded at 10-minute intervals for the next 60 minutes.
# [4] = tested on: mechanical allodynia induced by unilateral nerve ligation; assay: CCI model: mechanical allodynia (electronic Von Frey); type: in vivo, rat; settings: for Mechanical allodynia, pressure to elicit foot withdrawal, Post-op + Drug: ligated hind paw, ±SEM
# Method: as §1, §2
# Mechanical sensitivity and allodynia of the ligated rat hind paw was quantified by brisk foot withdrawal in response to normally innocuous mechanical stimuli as described previously. Responsiveness to mechanical stimuli was tested with a calibrated electronic Von Frey pressure algometer connected to an online computerised data collection system. A significant decrease in the post operative compared to baseline pressure (g/mm^2) necessary to elicit a brisk foot withdrawal in response to this mechanical stimulus is interpreted as mechanical allodynia.
structure (smiles),measurement,setting,value
"COC[C@@H](NC(C)=O)C(=O)NCc1ccccc1 [SPM 927, (R)-2-Acetamido-N-benzyl-3-methoxypropionamide]","Spontaneous nociception, weighted pain score, Post-op + Drug",[1]; 5 mg/kg i.p.,1.8 ± 0.18
same,"Spontaneous nociception, weighted pain score, Post-op + Drug",[1]; 10 mg/kg i.p.,1.5 ± 0.11
same,"Spontaneous nociception, weighted pain score, Post-op + Drug",[1]; 20 mg/kg i.p.,0.9 ± 0.14
same,"Spontaneous nociception, weighted pain score, Post-op + Drug",[1]; 40 mg/kg i.p.,0.8 ± 0.28
same,effect on level of spontaneous pain (in words),[1]; 5-40 mg/kg i.p.,did not change
same,"FORCE INDUCING PAW-WITHDRAWAL, % change",[2]; 8 mg/kg i.p. -30 min,+56% (b)
same,"FORCE INDUCING PAW-WITHDRAWAL, mean ± s.e.m.",[2]; 8 mg/kg i.p. -30 min,27.2 ± 4.9 NS (b) g
same,"FORCE INDUCING PAW-WITHDRAWAL, % change",[2]; 16 mg/kg i.p. -30 min,+40% (b)
same,"FORCE INDUCING PAW-WITHDRAWAL, mean ± s.e.m.",[2]; 16 mg/kg i.p. -30 min,24.4 ± 3.0 NS (b) g
same,"FORCE INDUCING PAW-WITHDRAWAL, % change",[2]; 32 mg/kg i.p. -30 min,+116% (b)
same,"FORCE INDUCING PAW-WITHDRAWAL, mean ± s.e.m.",[2]; 32 mg/kg i.p. -30 min,37.6 ± 6.1 (b) g
same,comparison of effects in the CHUNG test (in words),"[2]; tactile and thermal stimulation, i.p.","minimum comparable, but usually more potent than the reference compounds"
same,Anti-nociceptive effect,"[3]; 20 mg/kg i.p., 10 min after drug",5.0 ± 3.94%
same,Anti-nociceptive effect,"[3]; 20 mg/kg i.p., 20 min after drug",9.7 ± 7.51%
same,Anti-nociceptive effect,"[3]; 20 mg/kg i.p., 30 min after drug",9.7 ± 2.37%
same,Anti-nociceptive effect,"[3]; 20 mg/kg i.p., 40 min after drug",1.7 ± 7.42%
same,Anti-nociceptive effect,"[3]; 20 mg/kg i.p., 50 min after drug",5.4 ± 4.12%
same,Anti-nociceptive effect,"[3]; 20 mg/kg i.p., 60 min after drug",8.1 ± 5.20%
same,Anti-nociceptive effect,"[3]; 40 mg/kg i.p., 10 min after drug",−1.6 ± 12.82%
same,Anti-nociceptive effect,"[3]; 40 mg/kg i.p., 20 min after drug",−4.3 ± 14.04%
same,Anti-nociceptive effect,"[3]; 40 mg/kg i.p., 30 min after drug",−2.3 ± 9.14%
same,Anti-nociceptive effect,"[3]; 40 mg/kg i.p., 40 min after drug",−4.4 ± 11.44%
same,Anti-nociceptive effect,"[3]; 40 mg/kg i.p., 50 min after drug",0.3 ± 15.50%
same,Anti-nociceptive effect,"[3]; 40 mg/kg i.p., 60 min after drug",−5.5 ± 14.11%
same,effect in the tail flick test (in words),"[3]; 20 and 40 mg/kg i.p., listed as harkoseride",negative results; also recorded: little or no effect; also recorded: no anti-nociceptive effect
same,"Mechanical allodynia, pressure to elicit foot withdrawal, Post-op + Drug",[4]; 5 mg/kg i.p.,21.8 ± 2.34 g/mm^2
same,"Mechanical allodynia, pressure to elicit foot withdrawal, Post-op + Drug",[4]; 10 mg/kg i.p.,29.2 ± 2.85 g/mm^2
same,"Mechanical allodynia, pressure to elicit foot withdrawal, Post-op + Drug",[4]; 20 mg/kg i.p.,39.6 ± 3.62 g/mm^2
same,"Mechanical allodynia, pressure to elicit foot withdrawal, Post-op + Drug",[4]; 40 mg/kg i.p.,43.0 ± 5.48 g/mm^2
same,effect on intensity of mechanical allodynia (in words),[4]; 5-40 mg/kg i.p.,dose dependently reduced
